From article PMC10810714, “Antiretroviral Drug Exposure and Response in Obese and Morbidly Obese People With Human Immunodeficiency Virus (HIV): A Study Combining Modelling and Swiss HIV Cohort Data” (Clinical Infectious Diseases: An Official Publication of …, 2023)
Like-named read-outs stand apart in the source and are kept apart here.

What was measured:
[1] = cited from earlier work; for AUCt, observed, nonobese individuals / Cmax, observed, nonobese individuals / Cτ, observed, nonobese individuals / t1/2, observed, nonobese individuals: standard oral dose at steady state, GM (mean for etravirine, emtricitabine, tenofovir), literature studies only, ref Supplementary Table 2 [9-16, 21-24]
[2] = PBPK model virtual trials matched to the observed studies (model verification, nonobese vs obese); parameters: species or system human; conditions: for AUCt, Ratio Predicted/Observed, Nonobese / Cmax, Ratio Predicted/Observed, Nonobese / Cτ, Ratio Predicted/Observed, Nonobese / t1/2, Ratio Predicted/Observed, Nonobese: nonobese individuals; for Predictions within x-fold of observed clinical data: pharmacokinetic parameters in obese and nonobese individuals, 1.25-fold 'for the most part'
Description: (§1) We took several steps to analyse the impact of obesity on the ARVs exposure and response. First, we implemented our in-house PBPK model with our recently published virtual White obese population to simulate the pharmacokinetics of ARVs in nonobese and obese individuals. Next, we verified the simulations against the TDM data collected during the follow-up visits of the SHCS (multiple drug levels per individual were allowed [more information on the SHCS in the homonymous section in the Supplementary Material]). We then applied the verified model to extrapolate the pharmacokinetics across different obesity classes. Finally, the clinical relevance of obesity-related changes on drug response was evaluated by analyzing HIV viral load and the corresponding TDM values in obese and nonobese individuals in the SHCS.
(§2) All ARV drug models, except for doravirine (Supplementary Table 1), were previously developed and verified to predict the pharmacokinetics in healthy and elderly PWH [6, 12]. […] The TDM data were excluded if the participant’s age was younger than 20 or older than 50 years to avoid the age-related confounding effect on the pharmacokinetics, if a nonstandard ARV dosage was used, and if concurrent medications with inhibitory or inducing effects were used. The pharmacokinetic parameters including peak plasma concentration (Cmax), area under the curve to time t (AUCt), and trough concentration (Cτ) were derived from the TDM data using noncompartmental analysis.
(§3) A literature search was also performed to identify pharmacokinetic studies with ARVs conducted in obese and nonobese individuals. Data on the study design, characteristics of the participants, and pharmacokinetic results were collected. […] Available concentration-time profiles were digitalized using GetData Graph Digitizer V.2.26. The virtual trials were conducted by matching the participants’ demographics (eg, age, proportion of females, and BMI) and the ARV dosing regimen (Supplementary Table 2). The models were considered verified if the simulations were within 2-fold of observed data.

HIV viral load = test: Drug response in obese versus nonobese participants in the SHCS (concentration below efficacy threshold and viral load >50 copies/mL)
Method: The viral load was analyzed in conjunction with the TDM data to evaluate whether a decrease in ARV exposure in obese PWH is associated with a viral load of more than 50 copies/mL (the viral load measured on the date of the TDM assessment was considered for this evaluation).

[3] = Observed pharmacokinetics of antiretrovirals in nonobese and obese individuals (SHCS therapeutic drug monitoring data and literature studies, noncompartmental analysis); conditions: for AUC(0-t) / Cmax / half-life: human, plasma, po, nonobese individuals; for AUC(0-t): AUCt; for AUC(0-t) / Cmax: observed; for AUC(0-t) / Cmax / half-life / Cτ, observed, nonobese individuals: nonobese (BMI range per drug), GM; for half-life: t1/2, observed
Description: as §1, §2, §3
The Swiss HIV Cohort Study (SHCS) is an ongoing, nationwide, multicenter, clinic-based prospective cohort study in Switzerland with continuous enrollment and follow-up (twice a year) of people with HIV (PWH). Socio-demographic, clinical and laboratory data are recorded in detail. […] The collection of therapeutic drug monitoring (TDM) data in the SHCS database was initiated in 1998. All available TDM data for each evaluated antiretroviral drug were extracted from the SHCS database representing 6210 and 575 data points for the verification of the simulations in non-obese and obese individuals, respectively.

[4] = over 18 mo after switching from tenofovir disoproxil fumarate; cited from earlier work
[5] = Black African PWH, median BMI 25.3 vs 32.8 kg/m^2; cited from earlier work
[6] = obese BMI 36–46 kg/m^2, 245 mg QD, mean, literature study only
[7] = BMI 18.5–30 kg/m^2, viral load above 50 copies/mL
[8] = BMI >30 kg/m^2, viral load above 50 copies/mL
[9] = obese (BMI >=30, range per drug), standard oral dose at steady state, GM (mean for etravirine), SHCS TDM data with or without literature data
[10] = standard oral dose at steady state, SHCS TDM data with or without literature data

| Compound | AUCt, observed, nonobese individuals [1] | Cmax, observed, nonobese individuals [1] | Cτ, observed, nonobese individuals [1] | AUCt, Ratio Predicted/Observed, Nonobese [2] | Cmax, Ratio Predicted/Observed, Nonobese [2] | Cτ, Ratio Predicted/Observed, Nonobese [2] | t1/2, Ratio Predicted/Observed, Nonobese [2] | % PWH with virological failure amongst those with concentration below efficacy threshold (HIV viral load; [7]) | % PWH with virological failure amongst those with concentration below efficacy threshold (HIV viral load; [8]) | % PWH with concentration below efficacy threshold (HIV viral load; BMI 18.5–30 kg/m^2) | % PWH with concentration below efficacy threshold (HIV viral load; BMI >30 kg/m^2) | Cτ, observed, obese individuals [3, 9] | AUC(0-t) [3, 10] | Cmax [3, 10] | half-life [3, 10] | Cτ, observed, nonobese individuals [3, 10] | further results |
| --- | --- | --- | --- | --- | --- | --- | --- | --- | --- | --- | --- | --- | --- | --- | --- | --- | --- |
| C[C@H](Cn1cnc2c(N)ncnc21)OCP(=O)(O)O [Tenofovir, tenofovir] | 2858.4 ng·h/mL | 300.5 ng/mL | 58.2 ng/mL | 1.06 | 1.00 | 1.11 | 1.15 | – | – | – | – | – | – | – | – | – | t1/2, observed, nonobese individuals [1]: 14.9 h; AUCt, observed, obese individuals [1, 6]: 2346 ng·h/mL; Cmax, observed, obese individuals [1, 6]: 263 ng/mL; Cτ, observed, obese individuals [1, 6]: 47 ng/mL; t1/2, observed, obese individuals [1, 6]: 13 h; AUCt, Ratio Predicted/Observed, Obese ([2]; obese individuals): 0.95; Cmax, Ratio Predicted/Observed, Obese ([2]; obese individuals): 0.83; Cτ, Ratio Predicted/Observed, Obese ([2]; obese individuals): 1.13; t1/2, Ratio Predicted/Observed, Obese ([2]; obese individuals): 1.75 |
| darunavir/ritonavir | – | – | – | – | – | – | – | 1.6% | 0% | – | – | – | – | – | – | – | – |
| Cc1cc(/C=C/C#N)cc(C)c1Nc1ccnc(Nc2ccc(C#N)cc2)n1 [Rilpivirine, rilpivirine] | 2333 ng·h/mL | 159.7 ng/mL | 75.2 ng/mL | 1.05 | 0.93 | 0.96 | 0.65 | 1.9% | 0% | 15% | 0% | 89.2 ng/mL | – | – | – | – | t1/2, observed, nonobese individuals [1]: 47.2 h; Cmax, observed, obese individuals [3, 9]: 147.7 ng/mL; AUCt, Ratio Obese/Nonobese, Observed ([3]; observed data): 0.85; Cmax, Ratio Obese/Nonobese, Observed ([3]; observed data): 0.92; Cτ, Ratio Obese/Nonobese, Observed ([3]; observed data): 1.19; AUCt, Ratio (Predicted Ratio Obese/Nonobese)/(Observed Ratio Obese/Nonobese) [2]: 1.16; Cmax, Ratio (Predicted Ratio Obese/Nonobese)/(Observed Ratio Obese/Nonobese) [2]: 1.09; Cτ, Ratio (Predicted Ratio Obese/Nonobese)/(Observed Ratio Obese/Nonobese) [2]: 0.87; AUCt, Ratio Predicted/Observed, Obese ([2]; obese individuals): 1.23; Cmax, Ratio Predicted/Observed, Obese ([2]; obese individuals): 1.00; Cτ, Ratio Predicted/Observed, Obese ([2]; obese individuals): 0.84; Predictions within x-fold of observed clinical data [2]: ≤ 1.25 fold |
| O=C(NCc1c(F)cc(F)cc1F)c1cn2c(c(O)c1=O)C(=O)N1[C@H]3CC[C@H](C3)O[C@@H]1C2 [Bictegravir, bictegravir] | – | – | – | 0.97 | 0.87 | 1.01 | 1.27 | 0% | 0% | 1.5% | 0% | – | 85800 ng·h/mL | 5240 ng/mL | 20.6 h | 2373 ng/mL | Predictions within x-fold of observed clinical data [2]: ≤ 1.5 fold |
| O=C1Nc2ccc(Cl)cc2[C@@](C#CC2CC2)(C(F)(F)F)O1 [Efavirenz, efavirenz] | – | – | – | – | – | – | – | 1.1% | 1.1% | 2.3% | 5.2% | 1512 ng/mL | 52200 ng·h/mL | 3170 ng/mL | 20.2 h | 1751 ng/mL | – |
| CC(C)OC(=O)[C@H](C)N[P@](=O)(CO[C@H](C)Cn1cnc2c(N)ncnc21)Oc1ccccc1 [tenofovir alafenamide] | – | – | – | – | – | – | – | – | – | – | – | – | – | – | – | – | Increase in weight [4]: 1.7 kg |
| Cc1cc(C#N)cc(C)c1Oc1nc(Nc2ccc(C#N)cc2)nc(N)c1Br [Etravirine, etravirine] | 7970 ng·h/mL | 949 ng/mL | 464 ng/mL | – | – | – | – | 11.9% | 0% | 32.1% | 10% | 313 ng/mL | – | – | – | – | – |
| Cc1nnc(C(=O)NC(C)(C)c2nc(C(=O)NCc3ccc(F)cc3)c(O)c(=O)n2C)o1 [Raltegravir, raltegravir] | – | – | – | – | – | – | – | 1.6% | 0% | 4% | 4.7% | 171 ng/mL | – | – | – | 142 ng/mL | – |
| C[C@@H]1CCO[C@H]2Cn3cc(C(=O)NCc4ccc(F)cc4F)c(=O)c(O)c3C(=O)N12 [Dolutegravir, dolutegravir] | – | – | – | – | – | – | – | 0.3% | 0% | 2.1% | 2.6% | 940 ng/mL | 45400 ng·h/mL | 3320 ng/mL | 12.6 h | 889 ng/mL | Reduction in AUCt, obese vs nonobese [5]: 9%; Reduction in Cmax, obese vs nonobese [5]: 14%; Reduction in Cτ, obese vs nonobese [5]: 1% |
| CC(C)c1nc(CN(C)C(=O)N[C@H](C(=O)N[C@@H](Cc2ccccc2)C[C@H](O)[C@H](Cc2ccccc2)NC(=O)OCc2cncs2)C(C)C)cs1 [Ritonavir, ritonavir] | – | – | – | – | – | – | – | – | – | – | – | 71.3 ng/mL | 5740 ng·h/mL | 480 ng/mL | 5.4 h | 91.4 ng/mL | – |
| Nc1nc(=O)n([C@@H]2CS[C@H](CO)O2)cc1F [Emtricitabine, emtricitabine] | 9589.4 ng·h/mL | 1640.2 ng/mL | 67.1 ng/mL | 1.10 | 0.99 | 1.35 | 1.86 | – | – | – | – | – | – | – | – | – | t1/2, observed, nonobese individuals [1]: 9.4 h |
